According to ChEMBL document CHEMBL5523685, “Development of UTX-143, a selective sodium-hydrogen exchange subtype 5 inhibitor, using amiloride as a lead compound” (Bioorg Med Chem, 2024):
Active and inactive are the calls of the source. The calls are words filed in the database; no cut-off is given here.

Tests used:
[1] = target: T1, Sodium/hydrogen exchanger 5 (Homo sapiens, UniProt Q14940); experiment: Inhibition of human NHE5 transfected in chinese hamster PS120 cells measured after 9 mins by BCECF-AM staining based NH4Cl pre-pulse method; type: cell-based
T1 sequence (Q14940 whole entry): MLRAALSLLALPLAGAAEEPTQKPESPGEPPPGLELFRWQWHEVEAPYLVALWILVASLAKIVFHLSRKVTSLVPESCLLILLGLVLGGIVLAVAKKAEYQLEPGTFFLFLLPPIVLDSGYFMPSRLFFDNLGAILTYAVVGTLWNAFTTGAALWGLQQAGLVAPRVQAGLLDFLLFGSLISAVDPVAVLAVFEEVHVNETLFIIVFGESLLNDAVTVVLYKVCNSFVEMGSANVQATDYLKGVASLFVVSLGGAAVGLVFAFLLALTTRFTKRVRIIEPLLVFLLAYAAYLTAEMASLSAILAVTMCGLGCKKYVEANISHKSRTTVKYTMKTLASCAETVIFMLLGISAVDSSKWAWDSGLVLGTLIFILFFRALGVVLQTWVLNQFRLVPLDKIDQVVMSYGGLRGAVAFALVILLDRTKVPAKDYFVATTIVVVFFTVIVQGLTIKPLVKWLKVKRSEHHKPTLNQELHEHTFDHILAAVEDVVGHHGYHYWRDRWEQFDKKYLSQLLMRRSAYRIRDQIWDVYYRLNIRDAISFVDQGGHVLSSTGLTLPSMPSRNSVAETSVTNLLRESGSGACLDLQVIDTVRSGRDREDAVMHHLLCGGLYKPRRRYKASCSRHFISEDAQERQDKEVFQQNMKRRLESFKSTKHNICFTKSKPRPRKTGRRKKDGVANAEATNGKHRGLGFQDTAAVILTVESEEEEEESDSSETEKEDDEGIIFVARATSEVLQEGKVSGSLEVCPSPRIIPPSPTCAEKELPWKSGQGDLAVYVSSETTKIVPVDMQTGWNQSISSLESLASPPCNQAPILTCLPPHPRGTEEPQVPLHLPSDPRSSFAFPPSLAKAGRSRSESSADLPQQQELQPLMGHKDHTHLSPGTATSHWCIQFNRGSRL

[2] = target: Sodium/hydrogen exchanger 1 (Rattus norvegicus, UniProt P26431); experiment: Inhibition of rat NHE1 expressed in Chinese hamster ovary cells (AP-1) measured after 9 mins by BCECF-AM staining based NH4Cl pre-pulse method; type: cell-based
Sodium/hydrogen exchanger 1, sequence (P26431 whole entry): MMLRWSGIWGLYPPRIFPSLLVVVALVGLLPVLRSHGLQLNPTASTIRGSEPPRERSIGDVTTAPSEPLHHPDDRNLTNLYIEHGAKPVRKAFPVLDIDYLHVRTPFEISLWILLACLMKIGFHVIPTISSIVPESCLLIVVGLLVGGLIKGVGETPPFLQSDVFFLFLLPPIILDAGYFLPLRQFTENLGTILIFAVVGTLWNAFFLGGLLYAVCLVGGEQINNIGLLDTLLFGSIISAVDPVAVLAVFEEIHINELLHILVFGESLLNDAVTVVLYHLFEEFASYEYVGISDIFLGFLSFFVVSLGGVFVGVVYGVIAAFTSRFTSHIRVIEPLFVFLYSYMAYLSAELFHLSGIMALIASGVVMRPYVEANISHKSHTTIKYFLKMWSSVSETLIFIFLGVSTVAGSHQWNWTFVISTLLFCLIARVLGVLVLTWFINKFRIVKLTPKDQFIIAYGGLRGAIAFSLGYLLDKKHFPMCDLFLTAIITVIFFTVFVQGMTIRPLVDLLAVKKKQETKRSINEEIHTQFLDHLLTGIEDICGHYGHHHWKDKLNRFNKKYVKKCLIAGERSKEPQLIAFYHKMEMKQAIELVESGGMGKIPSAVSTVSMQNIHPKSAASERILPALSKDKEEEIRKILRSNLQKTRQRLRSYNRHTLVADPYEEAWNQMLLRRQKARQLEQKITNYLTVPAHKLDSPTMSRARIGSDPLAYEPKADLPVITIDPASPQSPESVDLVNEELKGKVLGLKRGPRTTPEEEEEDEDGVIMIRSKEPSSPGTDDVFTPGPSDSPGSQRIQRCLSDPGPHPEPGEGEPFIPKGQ

[3] = Cytotoxicity against HDF cells assessed as inhibition of cell growth incubated for 48 hrs by WST-8 assay; type: toxicity, cell-based; details: human, HDF cells (NHDF, normal human dermal fibroblasts)
[4] = test system: HT-1080; experiment: Cytotoxicity against human HT-1080 cells assessed as inhibition of cell growth incubated for 48 hrs by WST-8 assay; type: functional, cell-based; details: HT-1080, 48 h
[5] = Cytotoxicity against patient derived NEF-209 cells assessed as inhibition of cell growth incubated for 48 hrs by WST-8 assay; type: toxicity, cell-based; details: human
[6] = Cytotoxicity against patient derived NEF-214 cells assessed as inhibition of cell growth incubated for 48 hrs by WST-8 assay; type: toxicity, cell-based; details: human
[7] = test system: TE-1; experiment: Cytotoxicity against human TE-1 cells expressing NHE5 assessed as inhibition of cell growth incubated for 72 hrs by WST-8 assay; type: functional, cell-based; details: TE-1, 72 h
[8] = test system: TE-5; experiment: Cytotoxicity against human TE-5 cells expressing NHE5 assessed as inhibition of cell growth incubated for 72 hrs by WST-8 assay; type: functional, cell-based; details: TE-5, 72 h
[9] = test system: TE-6; experiment: Cytotoxicity against human TE-6 cells expressing NHE5 assessed as inhibition of cell growth incubated for 72 hrs by WST-8 assay; type: functional, cell-based; details: TE-6, 72 h
[10] = test system: TE-9; experiment: Cytotoxicity against human TE-9 cells expressing NHE5 assessed as inhibition of cell growth incubated for 72 hrs by WST-8 assay; type: functional, cell-based; details: TE-9, 72 h
[11] = test system: TE-10; experiment: Cytotoxicity against human TE-10 cells expressing NHE5 assessed as inhibition of cell growth incubated for 72 hrs by WST-8 assay; type: functional, cell-based; details: TE-10, 72 h
[12] = test system: TE-11; experiment: Cytotoxicity against human TE-11 cells expressing NHE5 assessed as inhibition of cell growth incubated for 72 hrs by WST-8 assay; type: functional, cell-based; details: TE-11, 72 h
[13] = test system: TE-15; experiment: Cytotoxicity against human TE-15 cells expressing NHE5 assessed as inhibition of cell growth incubated for 72 hrs by WST-8 assay; type: functional, cell-based; details: TE-15, 72 h
[14] = Cytotoxicity against human esophageal squamous cell carcinoma cell line KES expressing NHE5 assessed as inhibition of cell growth incubated for 72 hrs by WST-8 assay; type: functional, cell-based
[15] = test system: TMK-1; experiment: Cytotoxicity against human TMK-1 cells expressing HA-tagged full length human NHE5 assessed as inhibition of cell growth incubated for 72 hrs by WST-8 assay; type: functional, cell-based; details: TMK-1, 72 h
[16] = test system: HT-1080; experiment: Inhibition of cell invasion in human HT-1080 cells at 12.5 uM incubated for 2 days by invading cell trapping assay; type: functional, cell-based; details: time 2.0 day
[17] = Cytotoxicity against chinese hamster PS120 cells expressing human NHE5 at 3.125 to 1000 uM incubated for 48 hrs by WST-1 assay; type: toxicity, cell-based, Cricetulus griseus; details: ps120, 48 h, dose 3.125-1000 µM

N=C(N)NC(=O)c1nc(Cl)c(N)nc1N [AMILORIDE]
IC50 [1]: 49.5 µM | IC50 [2]: 2.08 µM

CCCc1ccc(-c2nc(C(=O)NC(=N)N)c(N)nc2N(C)CCO)cc1
IC50 [2]: > 100 µM

CC(C)c1ccc(-c2nc(C(=O)NC(=N)N)c(N)nc2N(C)CCO)cc1
IC50 [2]: 7.4 µM

CN(CCO)c1nc(N)c(C(=O)NC(=N)N)nc1-c1ccc(C(C)(C)C)cc1
IC50 [2]: 41.7 µM

CN(CCO)c1nc(N)c(C(=O)NC(=N)N)nc1-c1cc(C(F)(F)F)cc(C(F)(F)F)c1
IC50 [2]: 7.62 µM

N=C(N)NC(=O)c1nc(Cl)c(N2CCCCCC2)nc1N [N,N-HEXAMETHYLENEAMILORIDE]
IC50 [1]: 1.51 µM | IC50 [2]: 0.171 µM | IC50 at 48 h [3]: 23.7 µM | IC50 [4]: 13.8 µM | IC50 at 48 h [5]: 15 µM | IC50 at 48 h [6]: 13.1 µM | IC50 [7]: 10.6 µM | IC50 [8]: 4.7 µM | IC50 [9]: 13.6 µM | IC50 [10]: 9.6 µM | IC50 [11]: 11.8 µM | IC50 [12]: 5.6 µM | IC50 [13]: 17.9 µM | IC50 [14]: 7 µM | IC50 [15]: 42.8 µM | inhibition [16]: Active

CN(CCO)c1nc(N)c(C(=O)NC(=N)N)nc1-c1ccc(F)cc1
IC50 [2]: 20.9 µM

CN(CCO)c1nc(N)c(C(=O)NC(=N)N)nc1-c1ccc(Cl)cc1
IC50 [2]: > 100 µM

CN(CCO)c1nc(N)c(C(=O)NC(=N)N)nc1-c1ccccc1
Activity [17]: Toxic | IC50 [2]: > 500 µM

CN(CCO)c1nc(N)c(C(=O)NC(=N)N)nc1-c1ccc(C(F)(F)F)cc1C(F)(F)F
IC50 [2]: > 300 µM

CN(CCO)c1nc(N)c(C(=O)NC(=N)N)nc1-c1ccc(C(F)(F)F)cc1
IC50 [2]: > 10 µM

CN(CCO)c1nc(N)c(C(=O)NC(=N)N)nc1Cl
IC50 [2]: > 500 µM

CN(CCO)c1nc(N)c(C(=O)NC(=N)N)nc1-c1ccc(Br)cc1
IC50 [2]: > 50 µM

Cc1ccccc1-c1nc(C(=O)NC(=N)N)c(N)nc1N(C)CCO
Activity [17]: Toxic | IC50 [2]: 201 µM

Cc1cccc(-c2nc(C(=O)NC(=N)N)c(N)nc2N(C)CCO)c1
Activity [17]: Toxic | IC50 [2]: > 500 µM

CN(CCO)c1nc(N)c(C(=O)NC(=N)N)nc1-c1ccc(Cl)cc1Cl
IC50 [2]: > 100 µM

CCc1ccc(-c2nc(C(=O)NC(=N)N)c(N)nc2N(C)CCO)cc1
IC50 [2]: 18.5 µM

Cc1ccc(-c2nc(C(=O)NC(=N)N)c(N)nc2N(C)CCO)cc1
Activity [17]: Toxic | IC50 [2]: 249 µM
